# Test results: patent publication US6610689B2, “HIV protease inhibitors based on amino acid derivatives” (priority 2001, dated 2003)
# Counter-ions that a name gives are not always drawn.
# Biological target: T1, HIV protease (Human immunodeficiency virus type 1 group M subtype B, UniProt P04585)
# T1 construct: A third viral enzyme known as protease then cleaves the polyproteins
# Experiment: Enzymatic Assay for Determining the Inhibition Constant (Ki) of Synthetic Compounds Targeting the HIV Protease (fluorometric FRET assay)
# Assay type: biochemical
# Details: not given
# Method in brief: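 Ki obtained via the Henderson equation from enzyme velocities with and without compound, accounting for substrate concentration and Km. Activity followed by FRET fluorescence from cleavage of a substrate flanked by EDANS donor and DABCYL acceptor.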
row,Structure (SMILES),Ki
1,"Cc1ccc(S(=O)(=O)N(CC(C)C)[C@@H](CCCCNC(=O)[C@H](Cc2ccccc2)NC(=O)C(F)(F)F)C(=O)O)cc1 [Example 101, Nα-Isobutyl-Nα-(4-methylbenzenesulfonyl)-Nε-(N′α-trifluoroacetyl-L-phenylalanyl)-L-lysine]",2.9 nM
2,Cc1ccc(S(=O)(=O)N[C@@H](Cc2c[nH]c3ccccc23)C(=S)NCCCC[C@@H](CO)N(CC(C)C)S(=O)(=O)c2ccc(C)cc2)cc1 [Example 102],51 nM
3,"Cc1ccc(S(=O)(=O)NC(Cc2c[nH]c3ccccc23)C(=NC#N)NCCCCC(C(=O)O)N(CC(C)C)S(=O)(=O)c2ccc(C)cc2)cc1 [Example 103, Nα-Isobutyl-Nα-(4-methylbenzenesulfonyl)-Nε-[N′α-(4-methylbenzenesulfonyl)-L-tryptophanyl-N-cyanoamidine]-L-lysine]",1.1 nM
4,"Cc1ccc(S(=O)(=O)N(CC(C)C)C(CCCCNC(=O)C(Cc2c[nH]c3ccccc23)NS(=O)(=O)c2ccccc2)C(=O)OCC(O)CO)cc1 [Example 104, Nα-Isobutyl-Nα-(4-methylbenzenesulfonyl)-Nε-(N′α-benzenesulfonyl-L-tryptophanyl)-L-lysine 2,3-Dihydroxypropyl Ester]",> 300 nM
5,"Cc1ccc(S(=O)(=O)N(CC(C)C)[C@@H](CCCCNC(=O)CNc2cccnc2)C(=O)O)cc1 [Example 106, Nα-Isobutyl-Nα-(4-methylbenzenesulfonyl)-Nε-[N′α-(3-pyridyl)glycyl]-L-lysine]",> 300 nM
6,"COc1cccc(CNCC(=O)NCCCC[C@@H](C(=O)O)N(CC(C)C)S(=O)(=O)c2ccc(C)cc2)c1OC [Example 107, Nα-Isobutyl-Nα-(4-methylbenzenesulfonyl)-Nε-[N′α-(2,3-dimethoxybenzyl)glycyl]-L-lysine]",52 nM
7,"Cc1ccc(S(=O)(=O)N(CC(C)C)[C@@H](CCCCNC(=O)CNCCN2CCOCC2)C(=O)O)cc1 [Example 111, Nα-Isobutyl-Nα-(4-methylbenzenesulfonyl)-Nε-[N′α-(4-niorpholinyl-N-ethyl)glycyl]-L-lysine]",> 300 nM
8,"Cc1ccc(S(=O)(=O)N(CC(C)C)[C@@H](CCCCNC(=O)CNc2cnc3ccccc3c2)C(=O)O)cc1 [Example 113, Nα-Isobutyl-Nα-(4-methylbenzenesulfonyl)-Nε-[N′α-(3-quinolyl)glycyl]-L-lysine]",12 nM
9,"Cc1ccc(S(=O)(=O)N(CC(C)C)[C@H](CO)CCCCNC(=O)[C@H](Cc2c[nH]c3ccccc23)NC(=O)C(C)(C)C)cc1 [Example 117, (2S,2′S) 2-N-Isobutyl-2-N-(4-methylbenzenesulfonyl)-6-N-(N′α-pivaloyl-S-tryptophanyl)-2,6-diaminohexanol]",0.428 nM
10,"CC(=O)N[C@@H](Cc1ccccc1)C(=O)NCCCC[C@@H](CO)N(CC(C)C)S(=O)(=O)c1ccc(C)cc1 [Example 118, (2S,2′S) 2-N-Isobutyl-2-N-(4-methylbenzenesulfonyl)-6-N-(N′α-acetyl-S-phenylalanyl)-2,6-diaminohexanol]",13 nM
11,"Cc1ccc(S(=O)(=O)N(CC(C)C)[C@H](CO)CCCCNC(=O)[C@H](Cc2ccccc2)NC(=O)C(C)(C)C)cc1 [Example 119, (2S,2′S) 2-N-Isobutyl-2-N-(4-methylbenzenesulfonyl)-6-N-(N′α-pivaloyl-S-phenylalanyl)-2,6-diaminohexanol]",3.9 nM
12,"Cc1ccc(S(=O)(=O)N(CC(C)C)[C@H](CO)CCCCNC(=O)[C@H](Cc2ccccc2)NC(=O)N2CCOCC2)cc1 [Example 120, (2S,2′S) 2-N-Isobutyl-2-N-(4-methylbenzenesulfonyl)-6-N-[N′α-(4-morpholinecarbonyl)-S-phenylalanyl]-2,6-diaminohexanol]",2.4 nM
13,"CC(=O)Nc1ccc(S(=O)(=O)N[C@@H](Cc2ccccc2)C(=O)NCCCC[C@@H](CO)N(CC(C)C)S(=O)(=O)c2ccc(C)cc2)cc1 [Example 121, (2S,2′S) 2-N-Isobutyl-2-N-(4-methylbenzenesulfonyl)-6-N-[N′α-(4-acetylaminobenzenesulfonyl)-S-phenylalanyl]-2,6-diaminohexanol]",23 nM
14,"Cc1ccc(S(=O)(=O)N(CC(C)C)[C@H](CO)CCCCNC(=O)[C@H](Cc2ccccc2)NS(=O)(=O)c2ccccc2)cc1 [Example 123, (2S,2′S) 2-N-Isobutyl-2-N-(4-methylbenzenesulfonyl)-6-N-(N′α-benzenesulfonyl-S-phenylalanyl)-2,6-diaminohexanol]",14 nM
15,"Cc1ccc(S(=O)(=O)N[C@@H](Cc2ccc([N+](=O)[O-])cc2)C(=O)NCCCC[C@@H](CO)N(CC(C)C)S(=O)(=O)c2ccc(C)cc2)cc1 [Example 124, (2S,2′S) 2-N-Isobutyl-2-N-(4-methylbenzenesulfonyl)-6-N-[N′α-(4-methylbenzenesulfonyl)-S-4-nitrophenylalanyl]-2,6-diaminohexanol]",12 nM
16,"COc1ccc(S(=O)(=O)N[C@@H](Cc2ccccc2)C(=O)NCCCC[C@@H](CO)N(CC(C)C)S(=O)(=O)c2ccc(C)cc2)cc1 [Example 126, (2S,2′S) 2-N-Isobutyl-2-N-(4-methylbenzenesulfonyl)-6-N-[N′α-(4-methoxybenzenesulfonyl)-S-phenylalanyl]-2,6-diaminohexanol]",19 nM
17,"Cc1ccc(S(=O)(=O)N(CC(C)C)[C@H](CO)CCCCNC(=O)[C@H](Cc2ccccc2)NS(=O)(=O)c2ccc(C(F)(F)F)cc2)cc1 [Example 127, (2S,2′S) 2-N-Isobutyl-2-N-(4-methylbenzenesulfonyl)-6-N-[N′α-(4-trifluoromethylbenzenesulfonyl)-S-phenylalanyl]-2,6-diaminohexanol]",164 nM
18,"Cc1ccc(S(=O)(=O)N(CC(C)C)[C@H](CO)CCCCNC(=O)[C@H](Cc2c[nH]c3ccccc23)NS(=O)(=O)c2cccs2)cc1 [Example 129, (2S,2′S) 2-N-Isobutyl-2-N-(4-methylbenzenesulfonyl)-6-N-[N′α-(2-thiophenesulfonyl)-S-tryptophanyl]-2,6-diaminohexanol]",1 nM
19,"Cc1ccc(S(=O)(=O)N(CC(C)C)[C@H](CO)CCCCNC(=O)[C@H](Cc2c[nH]c3ccccc23)NS(=O)(=O)c2ccc([N+](=O)[O-])cc2)cc1 [Example 130, (2S,2′S) 2-N-Isobutyl-2-N-(4-methylbenzenesulfonyl)-6-N-[N′α-(4-nitrobenzenesulfonyl)-S-tryptophanyl]-2,6-diaminohexanol]",27 nM
20,"CC(=O)N[C@@H](Cc1c[nH]c2ccccc12)C(=O)NCCCC[C@@H](CO)N(CC(C)C)S(=O)(=O)c1ccc(C)cc1 [Example 131, (2S,2′S) 2-N-Isobutyl-2-N-(4-methylbenzenesulfonyl)-6-N-(N′α-acetyl-S-tryptophanyl)-2,6-diaminohexanol]",3 nM
21,"COc1ccc(CC(=O)N[C@@H](Cc2ccccc2)C(=O)NCCCC[C@@H](C(=O)O)N(CC(C)C)S(=O)(=O)c2ccc(C)cc2)cc1 [Example 132, Nα-Isobutyl-Nα-(4-methylbenzenesulfonyl)-Nε-[N′α-(4-methoxyphenylacetyl)-L-phenylalanyl]-L-lysine]",0.257 nM

# Same assay, conditions: Table 1, compounds of formula I; read-out: Ki (anti-protease activity)
row,Structure (SMILES),Ki
1,"Cc1ccc(S(=O)(=O)N(CC(C)C)[C@@H](CCCCNC(=O)CNc2ccccc2)C(=O)O)cc1 [Example 105, Nα-Isobutyl-Nα-(4-methylbenzenesulfonyl)-Nε-(N′α-phenylglycyl)-L-lysine]",7.7 nM
2,"Cc1ccc(S(=O)(=O)N(CC(C)C)[C@@H](CCCCNC(=O)CNc2ccccn2)C(=O)O)cc1 [Example 108, Nα-Isobutyl-Nα-(4-methylbenzenesulfonyl)-Nε-[N′α-(2-pyridyl)glycyl]-L-lysine]",> 300 nM
3,"Cc1ccc(S(=O)(=O)N(CC(C)C)[C@@H](CCCCNC(=O)CNCCN2CCCCC2)C(=O)O)cc1 [Example 110, Nα-Isobutyl-Nα-(4-methylbenzenesulfonyl)-Nε-[N′α-(piperidinyl-N-ethyl)glycyl]-L-lysine Trifluoroacetic Acid Salt]",> 300 nM
4,"Cc1ccc(S(=O)(=O)N(CC(C)C)[C@@H](CCCCNC(=O)CNc2ccncc2)C(=O)O)cc1 [Example 112, Nα-Isobutyl-Nα-(4-methylbenzenesulfonyl)-Nε-[N′α-(4-pyridyl)glycyl]-L-lysine]",> 300 nM
5,"Cc1ccc(S(=O)(=O)N(CC(C)C)[C@@H](CCCCNC(=O)CN(Cc2ccccc2)c2ccccc2)C(=O)O)cc1 [Example 114, Nα-Isobutyl-Nα-(4-methylbenzenesulfonyl)-Nε-(N′α-benzyl-N′α-phenylglycyl)-L-lysine]",0.937 nM
6,"Cc1ccc(S(=O)(=O)N(CC(C)C)[C@@H](CCCCNC(=O)CN(C)c2ccccc2)C(=O)O)cc1 [Example 115, Nα-Isobutyl-Nα-(4-methylbenzenesulfonyl)-Nε-(N′α-methyl-N′α-phenylglycyl)-L-lysine]",12 nM
7,"Cc1ccc(S(=O)(=O)N[C@@H](Cc2c[nH]c3ccccc23)C(=O)NCCCC[C@@H](C=O)N(CC(C)C)S(=O)(=O)c2ccc(C)cc2)cc1 [Example 116, (2S,2′S) 2-N-Isobutyl-2-N-(4-methylbenzenesulfonyl)-6-N-[N′α-(4-methylbenzenesulfonyl)-S-tryptophanyl]-2,6-diaminohexanal]",> 300 nM
8,"Cc1ccc(S(=O)(=O)N(CC(C)C)[C@H](CO)CCCCNC(=O)[C@H](Cc2ccccc2)NS(=O)(=O)c2cccs2)cc1 [Example 122, (2S,2′S) 2-N-Isobutyl-2-N-(4-methylbenzenesulfonyl)-6-N-[N′α-(2-thiophenesulfonyl)-S-phenylalanyl]-2,6-diaminohexanol]",8.2 nM
9,"Cc1ccc(S(=O)(=O)N(CC(C)C)[C@H](CO)CCCCNC(=O)[C@H](Cc2ccccc2)NS(=O)(=O)c2ccc(F)cc2)cc1 [Example 125, (2S,2′S) 2-N-Isobutyl-2-N-(4-methylbenzenesulfonyl)-6-N-[N′α-(4-fluorobenzenesulfonyl)-S-phenylalanyl]-2,6-diaminohexanol]",39 nM
10,"Cc1ccc(S(=O)(=O)N(CC(C)C)[C@H](CO)CCCCNC(=O)[C@H](Cc2c[nH]c3ccccc23)NS(=O)(=O)c2ccccc2)cc1 [Example 128, (2S,2′S) 2-N-Isobutyl-2-N-(4-methylbenzenesuilfonyl)-6-N-(N′α-benzenesulfonyi-S-tryptophanyl)-2,6-diaminohexanol]",0.95 nM
